According to patent US9938273B2 (Plexxikon Inc., priority 2015, dated 2018):

Tests used:
[1] = target: T1, BA/F3-FLT3-ITD + D835Y cells (Homo sapiens, UniProt P36888, D835Y, cells depend on it, form not given); experiment: Cell proliferation assay (CellTiter-Glo), engineered BA/F3 cells; assay type: cell-based, murine; settings: BaF3 FLT3 ITD/D835Y cells, 3d-Growth; read-out: BaF3_FLT3 ITD/D835Y 3d-Growth: IC50
T1 sequence (P36888 1-993 D835Y): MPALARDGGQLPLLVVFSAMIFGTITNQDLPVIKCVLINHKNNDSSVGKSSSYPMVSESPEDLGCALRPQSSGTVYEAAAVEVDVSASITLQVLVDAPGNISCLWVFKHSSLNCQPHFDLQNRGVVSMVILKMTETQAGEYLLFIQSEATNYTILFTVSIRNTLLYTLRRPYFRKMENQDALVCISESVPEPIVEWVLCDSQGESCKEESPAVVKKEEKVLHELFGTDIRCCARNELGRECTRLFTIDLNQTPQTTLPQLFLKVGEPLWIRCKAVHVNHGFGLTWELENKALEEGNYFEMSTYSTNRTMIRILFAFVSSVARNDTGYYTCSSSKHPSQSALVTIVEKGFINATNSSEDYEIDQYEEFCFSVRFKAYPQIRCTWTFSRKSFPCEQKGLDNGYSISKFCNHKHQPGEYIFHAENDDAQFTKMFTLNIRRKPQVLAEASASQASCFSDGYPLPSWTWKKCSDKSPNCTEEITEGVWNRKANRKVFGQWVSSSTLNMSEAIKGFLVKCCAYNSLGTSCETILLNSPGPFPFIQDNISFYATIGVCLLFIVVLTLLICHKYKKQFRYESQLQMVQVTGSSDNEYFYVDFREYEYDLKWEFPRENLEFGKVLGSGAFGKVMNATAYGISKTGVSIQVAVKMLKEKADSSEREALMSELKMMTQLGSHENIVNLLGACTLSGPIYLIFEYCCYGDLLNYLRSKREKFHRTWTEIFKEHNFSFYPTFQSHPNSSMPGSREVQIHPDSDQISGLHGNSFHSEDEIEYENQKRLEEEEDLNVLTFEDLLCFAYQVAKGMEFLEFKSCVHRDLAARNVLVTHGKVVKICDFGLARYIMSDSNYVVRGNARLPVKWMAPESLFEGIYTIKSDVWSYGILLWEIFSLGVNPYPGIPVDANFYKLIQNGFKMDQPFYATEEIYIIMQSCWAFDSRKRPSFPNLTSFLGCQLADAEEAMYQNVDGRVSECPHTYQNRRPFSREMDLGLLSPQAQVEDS
Text: The FLT3 inhibitors may be assessed using the MOLM-14, Acute Myeloid Leukemia cell line that endogenously expresses FLT3 ITD or derivatives of the human FLT3 AML cell line which acquired the D835Y (activation loop) of F691L (gatekeeper) mutation after selection in escalating doses of the FLT3 Inhibitor AC220. FLT3 inhibitors may also be assessed using cells that are engineered to express mutant FLT3. For engineered cells, murine Ba/F3 cells were transfected with full-length FLT3 ITD/D835Y mutations. The parental BA/F3 cells are dependent upon Interleukin-3 (IL-3) for survival, and introduction of the FLT3 constructs rendered these cells dependent upon FLT3 kinase activity when cultured in the absences of IL-3. Engineered BA/F3 cell growth assays can be performed in either the […] of IL-3, to assess the compound inhibition of FLT3 or to detect the presence of off-target activity, respectively. Inhibitors of FLT3 kinase activity reduce or eliminate the FLT3 oncogenic signaling, resulting in reduced cell proliferation. This inhibition is measured as a function of compound concentration to asses IC50 values.
Cell lines used in proliferation assays are as follows in Table 3:
Cells were seeded at 1×10^4 cells per well of a 96 well cell culture plate in 50 μl of cell culture medium. Compounds were dissolved in DMSO, typically at a concentration of 0.5 mM and were serially diluted 1:3 for a total of eight points and added to the cells to final concentrations of […], 0.0041, 0.0014 and 0.00046 μM in 100 μl cell culture medium (final concentration 0.2% DMSO). […] The cells were incubated at 37° C., 5% CO2 for three days. CellTiter-Glo Buffer (Promega Cell Viability Assay catalog #G7573) and substrate were equilibrated to room temperature, and enzyme/substrate Recombinant Firefly Luciferase/Beetle Luciferin was reconstituted. The cell plates were equilibrated to room temperature for 30 minutes, then lysed by addition of an equivalent volume of the Celltiter-Glo Reagent. The plate was mixed for 10 minutes on a plate shaker to lyse the cells. The plates were read on a Tecan M1000 using Luminescence protocol modified to read 0.1 s per well. The luminescence reading assesses the ATP content, which correlates directly with cell number such that the reading as a function of compound concentration was used to determine the IC50 value.

c-KIT = target: T2, c-KIT (Homo sapiens, UniProt P10721); experiment: AlphaScreen kinase assay with recombinant enzyme, c-KIT; assay type: biochemical; settings: 100ATP, 8pt, GMean
T2 construct: purchased Millipore 14-559K
Summary of the method: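 Inhibition was measured as a drop in AlphaScreen signal arising from phosphotyrosine-bead capture of a biotinylated poly(Glu4-Tyr) peptide (30 nM) phosphorylated by recombinant kinase. For IC50 work the stated final concentration was 10 μM for the FLT3 mutants and 100 μM for c-KIT.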

T2 sequence (P10721 26-976): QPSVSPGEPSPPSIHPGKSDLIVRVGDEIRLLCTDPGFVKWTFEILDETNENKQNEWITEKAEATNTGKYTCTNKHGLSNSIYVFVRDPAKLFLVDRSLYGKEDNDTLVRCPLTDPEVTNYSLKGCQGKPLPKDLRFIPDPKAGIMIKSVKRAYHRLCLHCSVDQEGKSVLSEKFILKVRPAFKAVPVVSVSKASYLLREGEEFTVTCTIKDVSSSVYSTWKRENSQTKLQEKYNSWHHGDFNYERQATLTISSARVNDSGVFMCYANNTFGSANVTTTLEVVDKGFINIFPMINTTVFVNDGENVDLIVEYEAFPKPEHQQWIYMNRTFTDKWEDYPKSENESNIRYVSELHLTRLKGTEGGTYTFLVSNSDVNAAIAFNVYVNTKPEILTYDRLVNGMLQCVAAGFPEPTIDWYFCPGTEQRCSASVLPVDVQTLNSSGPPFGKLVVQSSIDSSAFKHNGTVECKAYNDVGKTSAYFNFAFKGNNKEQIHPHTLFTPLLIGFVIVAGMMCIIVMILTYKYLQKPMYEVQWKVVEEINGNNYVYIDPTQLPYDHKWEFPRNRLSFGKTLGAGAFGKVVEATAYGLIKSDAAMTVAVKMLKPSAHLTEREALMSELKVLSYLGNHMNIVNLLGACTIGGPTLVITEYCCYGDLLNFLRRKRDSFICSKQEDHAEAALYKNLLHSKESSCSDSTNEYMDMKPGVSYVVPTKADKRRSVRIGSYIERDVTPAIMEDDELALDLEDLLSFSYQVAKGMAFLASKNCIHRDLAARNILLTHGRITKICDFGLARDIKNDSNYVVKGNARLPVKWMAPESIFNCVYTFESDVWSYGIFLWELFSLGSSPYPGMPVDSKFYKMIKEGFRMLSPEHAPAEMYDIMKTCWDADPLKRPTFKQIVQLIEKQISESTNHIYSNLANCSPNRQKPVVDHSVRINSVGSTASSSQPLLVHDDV

| SMILES | GI50 [1] | IC50 (c-KIT) |
| --- | --- | --- |
| CN[C@@H]1CCN(C(=O)c2ccc(-c3cnc4[nH]c(-c5ccccc5)cc4c3)s2)C1 [Compound P-0106, [(3R)-3-(methylamino)pyrrolidin-1-yl]-[5-(2-phenyl-1H-pyrrolo[2,3-b]pyridin-5-yl)-2-thienyl]methanone] | 0.0001 to 10 µM | 0.0001 to 10 µM |
| CS(=O)(=O)N1CCC(NS(=O)(=O)c2cccc(-c3cnc4[nH]c(-c5ccccc5)cc4c3)n2)C1 (stereo not drawn) [Compound P-0107, N-(1-methylsulfonylpyrrolidin-3-yl)-6-(2-phenyl-1H-pyrrolo[2,3-b]pyridin-5-yl)pyridine-2-sulfonamide] | 0.0001 to 10 µM | 50 to 100 µM |
| O=S(=O)(NC1CC1)c1cccc(-c2cnc3[nH]c(-c4ccccc4)cc3c2)n1 [Compound P-0109, N-cyclopropyl-6-(2-phenyl-1H-pyrrolo[2,3-b]pyridin-5-yl)pyridine-2-sulfonamide] | 0.0001 to 10 µM | 50 to 100 µM |
| O=C(c1cccc(-c2cnc3[nH]c(-c4cnn(CC(F)(F)F)c4)cc3c2)n1)N1CCC(F)(F)C1 [Compound P-0112, (3,3-difluoropyrrolidin-1-yl)-[6-[2-[1-(2,2,2-trifluoroethyl)pyrazol-4-yl]-1H-pyrrolo[2,3-b]pyridin-5-yl]-2-pyridyl]methanone] | 0.0001 to 10 µM | 10 to 50 µM |
| CC(C)(C#N)CNC(=O)c1cccc(-c2cnc3[nH]c(-c4cnn(CC(F)(F)F)c4)cc3c2)n1 [Compound P-0113, N-(2-cyano-2-methyl-propyl)-6-[2-[1-(2,2,2-trifluoroethyl)pyrazol-4-yl]-1H-pyrrolo[2,3-b]pyridin-5-yl]pyridine-2-carboxamide] | 0.0001 to 10 µM | 0.0001 to 10 µM |
| N#CC1(NC(=O)c2cccc(-c3cnc4[nH]c(-c5ccccc5)cc4c3)n2)CCC1 [Compound P-0114, N-(1-cyanocyclobutyl)-6-(2-phenyl-1H-pyrrolo[2,3-b]pyridin-5-yl)pyridine-2-carboxamide] | 0.0001 to 10 µM | 50 to 100 µM |
| N#CC1(F)CCN(C(=O)c2cccc(-c3cnc4[nH]c(-c5ccccc5)cc4c3)n2)C1 (stereo not drawn) [Compound P-0115, 3-fluoro-1-[6-(2-phenyl-1H-pyrrolo[2,3-b]pyridin-5-yl)pyridine-2-carbonyl]pyrrolidine-3-carbonitrile] | 0.0001 to 10 µM | 50 to 100 µM |
| N#C[C@H]1CCN(C(=O)c2cccc(-c3cnc4[nH]c(-c5ccccc5)cc4c3)n2)C1 [Compound P-0117, (3S)-1-[6-(2-phenyl-1H-pyrrolo[2,3-b]pyridin-5-yl)pyridine-2-carbonyl]pyrrolidine-3-carbonitrile] | 0.0001 to 10 µM | 0.0001 to 10 µM |
| CC(C)(C#N)NC(=O)c1cccc(-c2cnc3[nH]c(-c4ccccc4)cc3c2)n1 [Compound P-0118, N-(1-cyano-1-methyl-ethyl)-6-(2-phenyl-1H-pyrrolo[2,3-b]pyridin-5-yl)pyridine-2-carboxamide] | 0.0001 to 10 µM | 50 to 100 µM |
| CN(CCC#N)C(=O)c1cccc(-c2cnc3[nH]c(-c4ccccc4)cc3c2)n1 [Compound P-0119, N-(2-cyanoethyl)-N-methyl-6-(2-phenyl-1H-pyrrolo[2,3-b]pyridin-5-yl)pyridine-2-carboxamide] | 0.0001 to 10 µM | 50 to 100 µM |
| N#CC1CCN(C(=O)c2cccc(-c3cnc4[nH]c(C5=CCCCC5)cc4c3)n2)C1 (stereo not drawn) [Compound P-0120, 1-[6-[2-(cyclohexen-1-yl)-1H-pyrrolo[2,3-b]pyridin-5-yl]pyridine-2-carbonyl]pyrrolidine-3-carbonitrile] | 0.0001 to 10 µM | 0.0001 to 10 µM |
| CC(C)(C#N)CNC(=O)c1cccc(-c2cnc3[nH]c(C4=CCCCC4)cc3c2)n1 [Compound P-0123, N-(2-cyano-2-methyl-propyl)-6-[2-(cyclohexen-1-yl)-1H-pyrrolo[2,3-b]pyridin-5-yl]pyridine-2-carboxamide] | 0.0001 to 10 µM | 0.0001 to 10 µM |
